Experimental data reported in patent US4616003A, “N^6 -dihydroxypropyladenosines” (Warner-Lambert Company, priority 1985, dated 1986).
Where two headings read alike, the source gives them in different places.

Legend:
Swiss-Webster male mice = assay: Mouse Activity and Screen Test (MAST): screen test failure; assay type: in vivo; settings: 1 hour prior to testing
Method: Nine unfasted Swiss-Webster male mice weighing 20-30 g are equally divided into three groups for each drug dose to be tested. That is, data for each dose level was generated by three separate groups of three mice each. A minimum of three dose levels (10, 30, and 100 mg/kg) are tested for each drug. Treatments are administered intraperitoneally one hour prior to testing. All dosages are calculated as parent compound and given in volumes of 10 ml/kg. Compounds are dissolved or suspended in 0.2% Methocel. Control animals are injected with Methocel. Testing: A two part testing procedure is started one hour postinjection. First, the screen test (ST) is performed (see Pharmac. Biochem. Behav. 6, 351-353, 1977). Briefly this test consists of placing mice on individual wire screens which are then rotated 180 degrees at the start of a 60 second observation period. The number of mice falling off the inverted screen is recorded. Data: The data obtained from the screen test are expressed as percent of mice falling off the screen. Data derived from locomotor activity of drug treated mice are compared to the activity of vehicle treated animals and are expressed as percent inhibition of spontaneous locomotion. All percentages reported for inhibition of locomotion (LI) are based upon data accumulated for one hour. Both phases of testing are graded: A=60-100%; C=31-59%; and N=0-30%. An overall dose rating is obtained by the following criteria: […]

adenosine A2 receptor = target: T1, adenosine A2 receptor (Rattus norvegicus, UniProt P30543); assay: Adenosine A2 receptor binding (RBA-2), displacement of [3H]NECA
T1 construct: Brains were thawed and then kept on ice while the striata were dissected out; tissue Pel-Freez (Rogers, Ark.); host or cells: rat striatum (Sprague-Dawley brains; Long-Evans gave essentially identical results)
T1 sequence (P30543 whole entry): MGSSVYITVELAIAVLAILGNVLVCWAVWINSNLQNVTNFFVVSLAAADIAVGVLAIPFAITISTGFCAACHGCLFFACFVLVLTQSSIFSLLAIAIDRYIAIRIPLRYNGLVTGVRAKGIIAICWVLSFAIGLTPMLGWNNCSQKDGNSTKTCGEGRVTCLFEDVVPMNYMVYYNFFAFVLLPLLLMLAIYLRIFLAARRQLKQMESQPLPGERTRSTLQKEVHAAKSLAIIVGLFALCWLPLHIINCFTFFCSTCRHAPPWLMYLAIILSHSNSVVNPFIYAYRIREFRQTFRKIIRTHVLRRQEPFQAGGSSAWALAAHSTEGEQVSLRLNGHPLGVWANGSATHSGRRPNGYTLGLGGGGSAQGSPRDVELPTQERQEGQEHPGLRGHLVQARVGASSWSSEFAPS
Method: Brains from 200-500 g mixed sex Sprague-Dawley rats were purchased from Pel-Freez (Rogers, Ark.). […] Brains were thawed and then kept on ice while the striata were dissected out. […] The suspension was centrifuged at 50,000 xg for ten minutes, the supernatant discarded, the pellet resuspended in 10 vol ice-cold Tris as above, recentrifuged, resuspended at 1 g/5 ml, and stored in plastic vials at -70° C. […] When needed, tissue was thawed at room temperature, disrupted in a Polytron, and kept on ice until used.
All incubations were for 60 minutes at 25° C. in 12×75 mm glass tubes containing 1 ml Tris with 5 mg original tissue weight of rat weight of rat striatal membranes, 4 nM [^3 H]-N-ethyl adenosine-5'-carboxamide ([^3 H]NECA), 50 nM N^6 -cyclopentyladenosine (to eliminate A1 receptor binding), 10 mM MgCl2, 0.1 units/ml of adenosine deaminase and 1% dimethylsulfoxide. N^6 -Cyclopentyladenosine was dissolved at 10 mM in 0.02N HCl and diluted in Tris. […] Test compounds were dissolved at 10 mM in dimethylsulfoxide on the same day as the experiment, and diluted in dimethylsulfoxide to 100× the final incubation concentration. […] [^3 H]NECA was diluted to 40 nM in Tris. The membrane suspension (5 mg/0.79 ml) contained sufficient MgCl2 and adenosine deaminase to give 10 mM and 0.1 units/ml, respectively, final concentration in the incubation. […] After all additions, the rack of tubes was vortexed, and the tubes were then incubated for 60 min at 25° C. in a shaking water bath. The rack of tubes was vortexed an additional time halfway through the incubation.
Incubations were terminated by filtration through 2.4 cm GF/B filters under reduced pressure. Each tube was filtered as follows: the contents of the tube were poured onto the filter, 4 ml of ice-cold Tris were added to the tube and the contents poured onto the filter, and the filter was washed twice with 4 ml of ice-cold Tris. The filtration was complete in about twelve seconds.
Nonspecific binding was defined as binding in the presence of 100 μM N^6 -cyclopentyladenosine, and specific binding was defined as total binding minus nonspecific binding. The IC50 was calculated by weighted nonlinear least squares curve-fitting to the mass-action equation. [formula] where Y is cpm bound
T is cpm total binding without drug
S is cpm specific binding without drug
D is the concentration of drug and
K is the IC50 of the drug
Weighting factors were calculated under the assumption that the standard deviation was proportional to the predicted value of Y. Nonspecific binding was treated as a very large (infinite) concentration of drug in the computer analysis.

male Swiss-Webster mice = assay: Antiwrithing (AW) test, acetic acid; assay type: in vivo; settings: Mus musculus, sc; subcutaneous, 20 minutes before acetic acid i.p.; read-out: ED50, suppression of writhing by 50% relative to vehicle controls
Method: The antiwrithing (AW) test provides preliminary assessment of compounds with potential analgesic activity. The test is performed in male Swiss-Webster mice. Compounds are administered subcutaneously in aqueous 0.2% methylcellulose or other appropriate vehicles in volumes of 10 ml/kg. Dosages represent active moiety.
Acetic acid (0.6%, 10 ml/kg) is injected intraperitoneally 20 minutes after administration of the adenosine agonist. Writhing movements are counted for five minutes starting seven minutes after the acetic acid injection. Writhing is defined as abdominal constriction and stretching of the body and hind legs with concave arching of the back. Data are expressed as ED50 values, where the ED50 is the dose necessary to suppress writhing by 50% relative to vehicle controls. ED50 values are calculated by nonlinear regression analysis.

[1] = 4 nM [3H]NECA, 50 nM N6-cyclopentyladenosine, rat striatal membranes, read-out: RBA-2 (IC50, adenosine A2 receptor affinity)

SMILES: OCC(O)CNc1ncnc2c1ncn2[C@@H]1O[C@H](CO)[C@@H](O)[C@@H]1O (stereo partly drawn) [Example 1, (R,S)-N^6 [2,3-Dihydroxypropyl]adenosine]
- Screen Test Failure (Swiss-Webster male mice; 0.1 mg/kg i.p.): 8%
- Screen Test Failure (Swiss-Webster male mice; 0.3 mg/kg i.p.): 100%
- Screen Test Failure (Swiss-Webster male mice; 1.0 mg/kg i.p.): 100%
- Screen Test Failure (Swiss-Webster male mice; 3.0 mg/kg i.p.): 100%
- Screen Test Failure (Swiss-Webster male mice; 10 mg/kg i.p.): 100%
- Screen Test Failure (Swiss-Webster male mice; 30 mg/kg i.p.): 100%
- Screen Test Failure (Swiss-Webster male mice; 100 mg/kg i.p.): 100%
- IC50 (adenosine A2 receptor; [1]): 19 µM
- ED50 (male Swiss-Webster mice): 0.07 mg/kg

SMILES: OC[C@@H](O)CNc1ncnc2c1ncn2[C@@H]1O[C@H](CO)[C@@H](O)[C@H]1O [Example 3]
- Screen Test Failure (Swiss-Webster male mice; 0.03 mg/kg i.p.): 0%
- Screen Test Failure (Swiss-Webster male mice; 0.1 mg/kg i.p.): 0%
- Screen Test Failure (Swiss-Webster male mice; 0.3 mg/kg i.p.): 0%
- Screen Test Failure (Swiss-Webster male mice; 1.0 mg/kg i.p.): 88%
- Screen Test Failure (Swiss-Webster male mice; 3.0 mg/kg i.p.): 100%
- Screen Test Failure (Swiss-Webster male mice; 10 mg/kg i.p.): 100%
- Screen Test Failure (Swiss-Webster male mice; 30 mg/kg i.p.): 100%
- IC50 (adenosine A2 receptor): 20 µM

SMILES: CC1(C)OCC(CNc2ncnc3c2ncn3[C@@H]2O[C@H](CO)[C@@H](O)[C@H]2O)O1 (stereo partly drawn) [Example 4, (R,S)-N^6-[2,3Dihydroxypropylisopropylidene]adenosine]
- Screen Test Failure (Swiss-Webster male mice; 0.3 mg/kg i.p.): 0%
- Screen Test Failure (Swiss-Webster male mice; 1.0 mg/kg i.p.): 0%
- Screen Test Failure (Swiss-Webster male mice; 3.0 mg/kg i.p.): 0%
- Screen Test Failure (Swiss-Webster male mice; 10 mg/kg i.p.): 66%
- Screen Test Failure (Swiss-Webster male mice; 30 mg/kg i.p.): 99%
- Screen Test Failure (Swiss-Webster male mice; 100 mg/kg i.p.): 99%
- IC50 (adenosine A2 receptor; [1]): 24 µM

SMILES: CC1(C)OC[C@@H](CNc2ncnc3c2ncn3[C@@H]2O[C@H](CO)[C@@H](O)[C@H]2O)O1 [Example 5, (R)-N^6-[2,3-Dihydroxypropylisopropylidene]-adenosine]
- Screen Test Failure (Swiss-Webster male mice; 0.3 mg/kg i.p.): 0%
- Screen Test Failure (Swiss-Webster male mice; 1.0 mg/kg i.p.): 11%
- Screen Test Failure (Swiss-Webster male mice; 3.0 mg/kg i.p.): 11%
- Screen Test Failure (Swiss-Webster male mice; 10 mg/kg i.p.): 77%
- Screen Test Failure (Swiss-Webster male mice; 30 mg/kg i.p.): 100%
- IC50 (adenosine A2 receptor; [1]): 15 µM

SMILES: Nc1nc(NCC(O)CO)c2ncn([C@@H]3O[C@H](CO)[C@@H](O)[C@H]3O)c2n1 (stereo partly shown) [Example 8]
- Screen Test Failure (Swiss-Webster male mice; 0.3 mg/kg i.p.): 0%
- Screen Test Failure (Swiss-Webster male mice; 1.0 mg/kg i.p.): 88%
- Screen Test Failure (Swiss-Webster male mice; 3.0 mg/kg i.p.): 99%
- Screen Test Failure (Swiss-Webster male mice; 10 mg/kg i.p.): 99%
- Screen Test Failure (Swiss-Webster male mice; 30 mg/kg i.p.): 99%
- Screen Test Failure (Swiss-Webster male mice; 100 mg/kg i.p.): 99%
- IC50 (adenosine A2 receptor; [1]): 75 µM
